{"source": "paper PMC12587552", "about": "“A nitrogen-containing diphyllin derivative C156-P1 exhibited broad-spectrum antiviral activity against Flaviviridae viruses by preventing endosomal acidification” (Antimicrobial Agents and Chemotherapy, 2025)", "key": {"DENV-1": {"test_system": "DENV-1", "test": "microbe, parasite or virus in culture", "format": "cell-based, DENV-1 clone D19044_7M", "details": "Dengue virus, read-out: EC50 against DENV-1"}, "[1]": {"test_system": "endosomal acidification in A549 cells", "test": "Endosomal acidification, LysoSensor DND-189 flow cytometry", "format": "cell-based, human"}, "DENV-2, ZIKV, and JEV": {"test_system": "DENV-2, ZIKV, and JEV", "test": "Viral binding and internalization assays", "format": "cell-based", "details": "A549 cells, MOI 2, viral RNA by RT-qPCR"}, "DENV-2 [2]": {"test_system": "DENV-2", "test": "Colocalization of DENV E protein and Rab7A, confocal microscopy", "format": "cell-based, DENV-2 strain 16681", "details": "A549 cells, DENV-2 MOI = 20, 50 nM, 12 h"}, "DENV-4": {"test_system": "DENV-4", "test": "DENV-4 infection, immunofluorescence assay", "format": "cell-based", "details": "Dengue virus, read-out: EC50 against DENV-4"}, "Ad5-eGFP": {"test_system": "Ad5-eGFP", "format": "cell-based, adenovirus type 5"}, "DENV-2 [3]": {"test_system": "DENV-2", "test": "DENV-2 infection in AG129 mice", "format": "in vivo", "details": "0.2 mg/kg i.p."}, "DENV-2 [4]": {"test_system": "DENV-2", "test": "Time-of-drug-addition assay", "format": "cell-based, DENV-2 strain 16681", "details": "A549 cells, DENV-2 MOI 2, 50 nM, 48 hpi"}, "HCV": {"test_system": "HCV", "test": "microbe, parasite or virus in culture", "format": "cell-based, hepatitis C virus genotype 2a JFH1", "details": "Hepatitis C virus, Huh-7, 72 h, read-out: EC50 against HCV"}, "in vitro": {"test": "in vitro", "details": "African green monkey"}, "VSV-eGFP": {"test_system": "VSV-eGFP", "test": "microbe, parasite or virus in culture", "format": "cell-based", "details": "Vesicular stomatitis virus, A549, 24 h, read-out: EC50 against VSV-eGFP"}, "DENV-2 [5]": {"test_system": "DENV-2", "test": "microbe, parasite or virus in culture", "details": "Dengue virus"}, "ZIKV, JEV, and YFV": {"test_system": "ZIKV, JEV, and YFV", "test": "organism not typed", "format": "cell-based", "details": "read-out: EC50 against ZIKV, JEV, and YFV, bound stated"}, "ZIKV": {"test_system": "ZIKV", "test": "microbe, parasite or virus in culture", "format": "cell-based, ZIKV strain SZ01", "details": "Zika virus, read-out: EC50 against ZIKV"}, "DENV-2 [6]": {"test_system": "DENV-2", "details": "for SI (ratio of CC50 to EC50): DENV-2"}, "V-ATPase": {"target": "V-ATPase (Homo sapiens, UniProt Q9Y487)", "sequence (Q9Y487 whole entry, looked up)": "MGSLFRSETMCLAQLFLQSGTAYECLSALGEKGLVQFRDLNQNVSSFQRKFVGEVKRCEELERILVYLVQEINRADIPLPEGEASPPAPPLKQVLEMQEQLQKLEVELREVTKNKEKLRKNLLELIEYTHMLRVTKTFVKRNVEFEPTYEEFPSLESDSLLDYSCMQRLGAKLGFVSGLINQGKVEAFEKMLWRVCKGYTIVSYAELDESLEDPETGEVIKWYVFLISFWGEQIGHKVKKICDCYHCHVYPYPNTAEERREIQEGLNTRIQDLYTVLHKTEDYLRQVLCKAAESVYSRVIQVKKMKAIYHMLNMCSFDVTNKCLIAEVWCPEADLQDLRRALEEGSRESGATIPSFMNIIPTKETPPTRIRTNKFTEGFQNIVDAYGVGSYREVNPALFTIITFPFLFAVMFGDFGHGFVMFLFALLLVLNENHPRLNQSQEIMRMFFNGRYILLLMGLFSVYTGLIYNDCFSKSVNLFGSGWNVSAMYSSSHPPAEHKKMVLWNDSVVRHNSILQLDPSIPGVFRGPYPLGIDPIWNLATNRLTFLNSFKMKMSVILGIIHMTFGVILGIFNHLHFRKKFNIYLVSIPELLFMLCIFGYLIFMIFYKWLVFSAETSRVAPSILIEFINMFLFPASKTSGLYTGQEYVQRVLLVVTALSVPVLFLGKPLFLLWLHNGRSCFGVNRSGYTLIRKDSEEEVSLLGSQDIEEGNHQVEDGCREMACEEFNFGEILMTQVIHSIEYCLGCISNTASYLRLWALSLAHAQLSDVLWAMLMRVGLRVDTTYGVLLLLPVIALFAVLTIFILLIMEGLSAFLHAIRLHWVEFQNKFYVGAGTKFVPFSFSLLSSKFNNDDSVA", "test": "ATPase activity assay on lysate of treated cells", "format": "cell-based", "details": "A549 cells treated 24 h; C156-P1 100 nM or 1000 nM, PHY34 100 nM, Baf-A1 100 nM; 2 µg total cell protein"}, "JEV": {"test_system": "JEV", "test": "organism not typed", "format": "cell-based, JEV strain SA14-14-2", "details": "read-out: EC50 against JEV"}, "ATP6V0A2": {"test_system": "ATP6V0A2", "test": "ATP6V0A2 mRNA level by RT-qPCR", "format": "cell-based, human"}, "HUVEC cells": {"test_system": "HUVEC cells", "details": "human"}, "SeV": {"test_system": "SeV", "format": "cell-based, Sendai virus"}, "HSV-1-eGFP": {"test_system": "HSV-1-eGFP", "test": "microbe, parasite or virus in culture", "format": "cell-based, herpes simplex virus type 1", "details": "Human alphaherpesvirus 1, A549, 48 h, read-out: EC50 against HSV-1-eGFP"}}, "note": "Read-outs that look alike come from different tables or passages of the source.", "data": [{"compound": "COc1cc2c(OCC#N)c3c(c(-c4ccc5c(c4)OCO5)c2cc1OC)C(=O)OC3", "note": "[Compound C156-P1]", "values": [{"measurement": "EC50", "setting": "DENV-1; DENV1, A549, 48 h", "value": 8.38, "unit": "nM"}, {"measurement": "EC50", "setting": "DENV-1; DENV1, Vero, 48 h", "value": 5.76, "unit": "nM"}, {"measurement": "Endosomal acidification (FITC intensity of LysoSensor DND-189)", "setting": "[1]", "value": "significantly decreased the MFI of FITC in a dose-dependent manner"}, {"measurement": "Effect on internalization or binding steps of DENV-2, ZIKV, and JEV", "setting": "DENV-2, ZIKV, and JEV", "value": "did not exhibit inhibitory effects"}, {"measurement": "Colocalization between DENV E protein and Rab7A", "setting": "DENV-2 [2]", "value": "significantly enhanced the colocalization between DENV E protein and Rab7A"}, {"measurement": "EC50", "setting": "DENV-4; DENV4, A549, 48 h", "value": 5.31, "unit": "nM"}, {"measurement": "EC50", "setting": "DENV-4; DENV4, Vero, 48 h", "value": 5.53, "unit": "nM"}, {"measurement": "Mean fluorescence intensity (MFI) of Ad5-eGFP within the cells", "setting": "Ad5-eGFP", "value": "slightly increased"}, {"measurement": "Number of Ad5-eGFP-positive cells versus DMSO", "setting": "Ad5-eGFP", "value": "no significant difference"}, {"measurement": "Body weight of DENV-2-infected mice", "setting": "DENV-2 [3]", "value": "mitigated the decline in body weight"}, {"measurement": "DENV-2 RNA load in blood", "setting": "DENV-2 [3]; days 3, 5, and 7 post-infection, RT-qPCR", "value": "markedly decreased DENV-2 in the blood"}, {"measurement": "Survival rate", "setting": "DENV-2 [3]; DENV-2 1 × 10^6 PFU i.p., until day 15", "value": 60, "unit": "%"}, {"measurement": "Intracellular viral RNA, NS3 protein and extracellular titers, before-, during- and after-incubation groups versus DMSO", "setting": "DENV-2 [4]", "value": "significantly reduced levels"}, {"measurement": "EC50", "setting": "HCV", "value": 5.13, "unit": "nM"}, {"measurement": "CC50", "setting": "in vitro", "value": 431, "unit": "nM"}, {"measurement": "EC50", "setting": "VSV-eGFP", "value": 9.27, "unit": "nM"}, {"measurement": "EC50", "setting": "DENV-2 [5]; DENV2, A549, 48 h, read-out: EC50 against DENV-2", "value": 1.36, "unit": "nM"}, {"measurement": "EC50", "setting": "DENV-2 [5]; DENV2, HUVEC, 48 h, read-out: EC50 against DENV-2", "value": 1.28, "unit": "nM"}, {"measurement": "EC50", "setting": "DENV-2 [5]; DENV2, Huh-7, 48 h, read-out: EC50 against DENV-2", "value": 4.45, "unit": "nM"}, {"measurement": "EC50", "setting": "DENV-2 [5]; DENV2, Vero, 48 h, read-out: EC50 against DENV-2", "value": 3.78, "unit": "nM"}, {"measurement": "EC50", "setting": "DENV-2 [5]; DENV2, read-out: EC50 against DENV-2, bound stated in text", "value": "< 5", "unit": "nM"}, {"measurement": "EC50", "setting": "ZIKV, JEV, and YFV", "value": "< 6", "unit": "nM"}, {"measurement": "EC50", "setting": "ZIKV; A549, 48 h", "value": 1.01, "unit": "nM"}, {"measurement": "EC50", "setting": "ZIKV; Vero, 48 h", "value": 0.76, "unit": "nM"}, {"measurement": "SI (ratio of CC50 to EC50)", "setting": "DENV-2 [6]; A549 cells", "value": 292.65}, {"measurement": "Extracellular DENV-2 viral titers versus DMSO", "setting": "DENV-2 [6]; A549 cells, MOI = 2, 50 nM, 24, 36, and 48 hpi, focus-forming assay", "value": "significantly decreased"}, {"measurement": "DENV-2 infection (NS3 protein, Western blot)", "setting": "DENV-2 [6]; A549 cells, MOI = 2, 48 h, indicated concentrations", "value": "decreased with increasing concentrations of C156-P1"}, {"measurement": "SI (ratio of CC50 to EC50)", "setting": "DENV-2 [6]; HUVEC cells", "value": 142.42}, {"measurement": "SI (ratio of CC50 to EC50)", "setting": "DENV-2 [6]; Huh7 cells", "value": 110.09}, {"measurement": "SI (ratio of CC50 to EC50)", "setting": "DENV-2 [6]; Vero cells", "value": 113.94}, {"measurement": "V-ATPase activity", "setting": "V-ATPase", "value": "significantly reduced V-ATPase activity"}, {"measurement": "EC50", "setting": "JEV; A549, 48 h", "value": 2.63, "unit": "nM"}, {"measurement": "EC50", "setting": "JEV; Vero, 48 h", "value": 2.84, "unit": "nM"}, {"measurement": "ATP6V0A2 mRNA expression", "setting": "ATP6V0A2", "value": "decrease in ATP6V0A2 mRNA expression"}, {"measurement": "Concentration tolerable for cytotoxicity", "setting": "HUVEC cells", "value": "< 62.5", "unit": "nM"}, {"measurement": "Inhibition of SeV infection (viral NP mRNA)", "setting": "SeV", "value": "did not inhibit SeV infection"}, {"measurement": "EC50", "setting": "HSV-1-eGFP", "value": 6.21, "unit": "nM"}]}]}
